# Test results taken from US20140031368A1, “SELECTIVE HDAC INHIBITORS” (THE TRUSTEES OF COLUMBIA UNIVERSITY IN THE CITY OF NEW YORK, priority 2010, published 2014).
# Key:
# HDAC6 = target: T1, HDAC6 (Homo sapiens, UniProt Q9UBN7); experiment: Fluorogenic HDAC assay kit (BPS Bioscience), HDAC6 inhibition; assay type: biochemical; conditions: for IC50: purified/recombinant enzyme, inhibitor range 10,000-0.1 nM; for IC50 0 ratio (1/6): ratio IC50 HDAC1 / IC50 HDAC6
# T1 sequence (Q9UBN7 1-1215): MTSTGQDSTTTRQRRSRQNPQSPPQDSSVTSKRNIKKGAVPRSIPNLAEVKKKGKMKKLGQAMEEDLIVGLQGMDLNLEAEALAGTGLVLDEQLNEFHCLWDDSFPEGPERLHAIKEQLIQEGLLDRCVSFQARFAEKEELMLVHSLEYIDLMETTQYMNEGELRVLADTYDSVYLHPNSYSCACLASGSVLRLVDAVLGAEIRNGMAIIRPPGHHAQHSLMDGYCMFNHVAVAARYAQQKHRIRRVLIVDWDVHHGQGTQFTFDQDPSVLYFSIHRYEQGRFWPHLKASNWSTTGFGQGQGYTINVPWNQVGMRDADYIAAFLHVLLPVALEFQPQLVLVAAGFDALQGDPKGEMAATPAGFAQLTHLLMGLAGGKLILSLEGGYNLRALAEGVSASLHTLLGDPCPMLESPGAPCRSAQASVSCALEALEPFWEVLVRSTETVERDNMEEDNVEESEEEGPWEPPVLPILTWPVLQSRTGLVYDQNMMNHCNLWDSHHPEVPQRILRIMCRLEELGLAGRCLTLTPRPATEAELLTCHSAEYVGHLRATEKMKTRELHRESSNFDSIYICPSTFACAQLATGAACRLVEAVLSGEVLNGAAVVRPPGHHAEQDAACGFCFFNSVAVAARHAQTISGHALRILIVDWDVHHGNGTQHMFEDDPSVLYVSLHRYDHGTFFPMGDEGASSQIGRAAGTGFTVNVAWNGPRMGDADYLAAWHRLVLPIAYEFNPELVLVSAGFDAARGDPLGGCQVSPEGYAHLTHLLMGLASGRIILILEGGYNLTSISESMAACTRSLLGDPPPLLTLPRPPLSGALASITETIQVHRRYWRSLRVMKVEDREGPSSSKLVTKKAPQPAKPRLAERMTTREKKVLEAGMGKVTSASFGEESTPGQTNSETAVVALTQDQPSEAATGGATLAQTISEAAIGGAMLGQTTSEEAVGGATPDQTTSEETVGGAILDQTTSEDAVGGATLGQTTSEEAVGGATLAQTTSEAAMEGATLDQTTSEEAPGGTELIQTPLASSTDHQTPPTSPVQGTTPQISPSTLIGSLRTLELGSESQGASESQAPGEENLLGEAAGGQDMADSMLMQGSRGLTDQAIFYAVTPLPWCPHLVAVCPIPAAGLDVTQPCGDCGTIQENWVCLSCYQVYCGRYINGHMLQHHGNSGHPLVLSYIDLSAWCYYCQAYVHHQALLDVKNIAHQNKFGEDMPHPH
# Method: (§1) Various compounds were tested in in vitro enzyme assays for their activity in inhibiting HDAC6 and HDAC1. The assays used was a fluorogenic HDAC assay kit (BPS Bioscience, San Diego, Calif.). On a micotiter the HDAC fluorometric substrate containing an aceylated side chain is incubated with a sample containing HDAC activity (purified/recombinant HDAC1 or HDAC6 enzyme). The deacetylation sensitizes the substrate so subsequent treatment with a lysine developer produces a fluorophore that can then be measured using a fluorescence reader. The assay is performed in the absence and presence of the potential inhibitor compound.
# (§2) Follow BPS Bioscience Fluorogenic HDAC Assay Kit (see Example 2). Range of inhibitor compounds tested: 10,000-0.1 nM
# HDAC1 = HDAC1 (Homo sapiens, UniProt Q13547); experiment: Fluorogenic HDAC assay kit (BPS Bioscience), HDAC1 inhibition; assay type: biochemical; conditions: purified/recombinant enzyme; inhibitor range 10,000-0.1 nM
# Chain of HDAC1 (Q13547 whole entry): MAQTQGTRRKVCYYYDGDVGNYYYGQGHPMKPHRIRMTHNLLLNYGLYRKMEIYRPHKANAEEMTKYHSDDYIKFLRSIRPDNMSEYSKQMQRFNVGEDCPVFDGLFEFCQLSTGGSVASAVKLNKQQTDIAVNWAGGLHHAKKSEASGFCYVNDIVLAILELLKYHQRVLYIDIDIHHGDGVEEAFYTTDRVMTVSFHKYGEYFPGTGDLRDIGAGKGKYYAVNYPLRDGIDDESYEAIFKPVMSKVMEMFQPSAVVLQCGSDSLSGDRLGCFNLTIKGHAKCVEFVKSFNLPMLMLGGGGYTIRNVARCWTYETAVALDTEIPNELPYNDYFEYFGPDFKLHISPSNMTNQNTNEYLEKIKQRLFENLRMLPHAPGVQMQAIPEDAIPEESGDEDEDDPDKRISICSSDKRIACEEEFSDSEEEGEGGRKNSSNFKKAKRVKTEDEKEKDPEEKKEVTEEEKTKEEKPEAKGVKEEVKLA
# Method: as §1, §2
# NP-C mutant fibroblasts = assay type: cell-based, human
# NP-C fibroblasts = experiment: Esterification of LDL-derived cholesterol (cholesteryl [3H]oleate formation) in NP-C fibroblasts; assay type: cell-based, human; conditions: 24 h treatment with 5 μM SAHA after 4 d in LPDS; FIG. 4B
# Method: Cells were grown for 4 d in LPDS, followed by a 24 h treatment with or without 5 μM SAHA, the last 4 h of which included LDL plus [^3H]oleate. *P<0.05, treated vs. untreated cells by two-tailed Student's t-test.
# [1] = system: HDAC genes in NPC-26 fibroblasts; experiment: qRT-PCR of HDAC gene expression in NPC-26 fibroblasts; assay type: cell-based, human; conditions: NPC-26 fibroblasts treated with HDAC inhibitor; FIG. 3B
IC50 (HDAC6),IC50 0 ratio (1/6) (HDAC6),IC50 (HDAC1),SMILES,lysosomal accumulation of unesterified cholesterol (filipin) (NP-C mutant fibroblasts),esterification of LDL-derived cholesterol (percent cholesteryl [3H]oleate formation relative to total lipids) (NP-C fibroblasts),HDAC gene expression (qRT-PCR) [1]
2.25 nM,107,242 nM,"O=C(CCCCCCC(=O)Nc1ccc(C(C(=O)Nc2cccc3cccnc23)C(=O)Nc2cccc3cccnc23)cc1)NO [Compound 6, N^1-(4-(1,3-Dioxo-1,3-bis(quinolin-8-ylamino)propan-2-yl)phenyl)-N^8-hydroxyoctanediamide]",,,
3 nM,42.9,129 nM,"O=C(CCCCCCC(=O)Nc1ccc(C(C(=O)Nc2ccccc2)C(=O)Nc2ccccc2)cc1)NO [Compound 9, N^1-(4-(1,3-Dioxo-1,3-bis(phenylamino)propan-2-yl)phenyl)-N^8-hydroxyoctanediamide]",,,
57 nM,25,1440 nM,"O=C(CCCCCCCC(=O)Nc1ccc(C(C(=O)Nc2cccc3cccnc23)C(=O)Nc2cccc3cccnc23)cc1)NO [Compound 28, N^1-(4-(1,3-dioxo-1,3-bis(quinolin-8-ylamino)propan-2-yl)phenyl)-N^9-hydroxynonanediamide]",,,
22 nM,51,1130 nM,"O=C(CCCCCC(=O)Nc1ccc(C(C(=O)Nc2cccc3cccnc23)C(=O)Nc2cccc3cccnc23)cc1)NO [Compound 31, N^1-(4-(1,3-dioxo-1,3-bis(quinolin-8-ylamino)propan-2-yl)phenyl)-N^7-hydroxyheptanediamide]",,,
12 nM,87,1040 nM,"O=C(CCCCCCNC(=O)c1ccc(C(C(=O)Nc2cccc3cccnc23)C(=O)Nc2cccc3cccnc23)cc1)NO [Compound 61, 2-(4-(7-(hydroxyamino)-7-oxoheptylcarbamoyl)phenyl)-N1,N3-di(quinolin-8-yl)malonamide]",,,
42 nM,58,2450 nM,"O=C(CCCCCCNC(=O)c1ccc(C(F)(C(=O)Nc2cccc3cccnc23)C(=O)Nc2cccc3cccnc23)cc1)NO [Compound 65, 2-Fluoro-2-(4-(7-(hydroxyamino)-7-oxoheptylcarbamoyl)phenyl)-N1,N3-di(quinolin-8-yl)malonamide]",,,
34.4 nM,3.1,106 nM,CC(C)(C)c1ccc(NC(=O)C(CCCCCC(=O)NO)C(=O)Nc2ccc(C(C)(C)C)cc2)cc1 [Compound 77],,,
65.7 nM,10.3,676 nM,CC(C)(C)c1ccc(CNC(=O)CCCCCCCC(=O)NO)cc1 [Compound 78],,,
4.4 nM,10.6,46.7 nM,CC(C)(C)OC(=O)Nc1ccc(-c2csc(C(=O)NCCCCCCC(=O)NO)c2)cc1 [Compound 79],,,
,,38.4 nM,"CC(C)(C)OC(=O)Nc1ccc(-c2cc(C(=O)NCCCCCCC(=O)NO)no2)cc1 [Kozikowski compound, reference compound]",,,
,,,"O=C(CCCCCCC(=O)Nc1ccccc1)NO [SAHA, suberoylanilide hydroxamic acid]",Reduction in lysosomal accumulation of unesterified cholesterol,Restoration of deficient esterification of LDL-derived cholesterol,restores expression in the direction of control cells
